Measured values from US11976334B2, “Inhibitor of ATR kinase for use in a method of treating a hyper-proliferative disease” (Bayer Aktiengesellschaft, priority 2017, dated 2024).

Assays:
[1] = tested on: LNCaP human prostate cancer cells; experiment: Proliferation of LNCaP cells (CellTiter-Glow); type: cell-based; settings: 144 h, R1881 1 nM, day 6, read-out: in vitro (IC50, nM), inhibition of tumor cell proliferation
Protocol: They were plated in RPMI1640 medium without phenol red+10% charcoal-stripped FCS at 600 cells/well in a 384-well white plate. […] Cell number was determined by CellTiter-Glow (Promega) at day 0 and day 6. Luminescence was determined in Victor X3. The inhibition of cell growth was calculated by normalization with respect to the fluorescence reading (cell number) measured at the end of the experiment for cells treated with R1881 alone compared to the fluorescence reading (cell number) measured at the start of the experiment for DMSO-treated cells.

[2] = tested on: 22RV1 human prostate cancer cells; experiment: Proliferation of 22Rv1 cells (crystal violet); type: cell-based; settings: 96 h, 22Rv1, Prostate, 4 days, read-out: in vitro (IC50, nM), inhibition of tumor cell proliferation
Protocol: (§1) 22RV1 human prostate cancer cells were obtained from the American Type Culture Collection (ATCC CRL-2505). They were plated in RPMI1640 medium supplemented with 10% FCS at 5000 cells/well in a 96-well microtiter plate. After 24 h, the cells from one microtiter plate were stained with crystal violet (==>0 plate), whereas the cells in the test plates were exposed continuously for 4 days to test substances. Cell proliferation was determined by staining with crystal violet. The absorbance was determined photometrically at 595 nm using a Tecan Sunrise instrument.

[3] = tested on: VCaP human prostate cancer cells; experiment: Proliferation of VCaP cells (Alamar Blue); type: cell-based; settings: 168 h, day 7, read-out: in vitro (IC50, nM), inhibition of tumor cell proliferation
Protocol: VCaP human prostate cancer cells were obtained from the VTT Technical Research Center (Finland). They were plated in DMEM medium (DMEM=Dulbecco's Modified Eagle Medium) with stable glutamine+10% FCS at 16000 cells/well in a 96-well microtiter plate. […] Cell number was determined by Alamar Blue staining (2 h) at day 0 and day 7. Fluorescence was determined in a Victor X3 device (excitation 530 nm; emission 590 nm). The inhibition of cell growth was calculated by normalization with respect to the fluorescence reading (cell number) measured at the end of the experiment for cells treated with R1881 alone compared to the fluorescence reading (cell number) measured at the start of the experiment for DMSO-treated cells.

[4] = tested on: LAPC-4 human prostate cancer cells; experiment: Proliferation of LAPC-4 cells (Alamar Blue); type: cell-based; settings: 168 h, LapC4, Prostate, R1881 1 nM, day 7, read-out: in vitro (IC50, nM), inhibition of tumor cell proliferation
Protocol: LAPC-4 human prostate cancer cells were obtained from the VTT Technical Resarch Center (Finland). They were plated in RPMI 1640 (RPMI=Roswell Park Memorial Institute) medium without phenol red+10% charcoal-stripped FCS (FCS=Fetal Calf Serum)+2 mM L-Glutamine at 4000 cells/well in a 96-well microtiter plate. […] Cell number was determined by Alamar Blue staining (2 h) at day 7. Fluorescence was determined in a Victor X3 device (excitation 530 nm; emission 590 nm). The inhibition of cell growth was calculated by normalization with respect to the fluorescence reading (cell number) measured at the end of the experiment for cells treated with R1881 alone compared to the fluorescence reading (cell number) measured at the end of the experiment for DMSO-treated cells.

[5] = tested on: PC-3 human prostate cancer cells; experiment: Proliferation of PC-3 cells (crystal violet); type: cell-based; settings: PC-3, 96 h, PC3, Prostate, 4 days, read-out: in vitro (IC50, nM), inhibition of tumor cell proliferation
Protocol: as §1, with “PC-3” for “22RV1”, “DSMZ-German” for “American Type Culture”, “of Microorganisms and Cell Cultures (Germany) (DSMZ ACC-465).” for “(ATCC CRL-2505).”, “DMEM/Ham's F12” for “RPMI1640”, “medium” for “medium supplemented”, “stable Glutamine+10%” for “10%”

C4-2B = experiment: Tumor cell proliferation, C4-2B (crystal violet); type: cell-based; settings: Homo sapiens, 96 h, Prostate, 4 days, read-out: in vitro (IC50, nM), inhibition of tumor cell proliferation
Excerpt: (§2) All measurements were done in quadruplicates.

HCC70 = experiment: Tumor cell proliferation, HCC70 (crystal violet); type: cell-based; settings: Homo sapiens, 96 h; HCC70, Breast; 4 days; read-out: in vitro (IC50, nM), inhibition of tumor cell proliferation
Excerpt: as §2

HT29 = experiment: Tumor cell proliferation, HT29 (crystal violet); type: cell-based; settings: Homo sapiens, HT-29, 96 h; HT29, Colorectal; 4 days; read-out: in vitro (IC50, nM), inhibition of tumor cell proliferation
Excerpt: as §2

U-87MG = experiment: Tumor cell proliferation, U-87MG (crystal violet); type: cell-based; settings: Homo sapiens, 96 h, Glioblastoma, 4 days, read-out: in vitro (IC50, nM), inhibition of tumor cell proliferation
Excerpt: as §2

M059J = experiment: Tumor cell proliferation, M059J (crystal violet); type: cell-based; settings: Homo sapiens, 96 h, Glioblastoma, 4 days, read-out: in vitro (IC50, nM), inhibition of tumor cell proliferation
Excerpt: as §2

NCI-H2030 = experiment: Tumor cell proliferation, NCI-H2030 (crystal violet); type: cell-based; settings: Homo sapiens, 96 h; NCI-H2030, Lung; 4 days; read-out: in vitro (IC50, nM), inhibition of tumor cell proliferation
Excerpt: as §2

NCI-H23 = experiment: Tumor cell proliferation, NCI-H23 (crystal violet); type: cell-based; settings: Homo sapiens, 96 h; NCI-H23, Lung; 4 days; read-out: in vitro (IC50, nM), inhibition of tumor cell proliferation
Excerpt: as §2

A549 = experiment: Tumor cell proliferation, A549 (crystal violet); type: cell-based; settings: Homo sapiens, 96 h; A549, Lung; 4 days; read-out: in vitro (IC50, nM), inhibition of tumor cell proliferation
Excerpt: as §2

SU-DHL-8 = experiment: Tumor cell proliferation, SU-DHL-8 (Cell Titer Glo); type: cell-based; settings: Homo sapiens, 96 h; SU-DHL-8, Lymphoma, B cell; 4 days; read-out: in vitro (IC50, nM), inhibition of tumor cell proliferation
Protocol: (§3) Non-adherent growing GRANTA-519, Jeko-1, JVM-2, NCI-H929, Rec-1 and SU-DHL-8 cells were seeded in 150 μl of growth medium at 4000 cells/well (NCI-H929, 5000 cells/well) in 96-well microtiter plates and incubated for 24 h at 37° C. […] All measurements were done in quadruplicates.

TMD-8 = experiment: Tumor cell proliferation, TMD-8; type: cell-based; settings: Homo sapiens, TMD8, 96 h; TMD-8, Lymphoma, B cell; 4 days; read-out: in vitro (IC50, nM), inhibition of tumor cell proliferation
Excerpt: as §2

REC-1 = experiment: Tumor cell proliferation, REC-1 (Cell Titer Glo); type: cell-based; settings: Homo sapiens, Rec1, 96 h; REC-1, Lymphoma, mantle cell; 4 days; read-out: in vitro (IC50, nM), inhibition of tumor cell proliferation
Protocol: as §3

Jeko-1 = experiment: Tumor cell proliferation, Jeko-1 (Cell Titer Glo); type: cell-based; settings: Homo sapiens, 96 h; Jeko-1, Lymphoma, mantle cell; 4 days; read-out: in vitro (IC50, nM), inhibition of tumor cell proliferation
Protocol: as §3

GRANTA-519 = experiment: Tumor cell proliferation, GRANTA-519 (Cell Titer Glo); type: cell-based; settings: Homo sapiens, 96 h; GRANTA-519, Lymphoma, mantle cell; 4 days; read-out: in vitro (IC50, nM), inhibition of tumor cell proliferation
Protocol: as §3

JVM-2 = experiment: Tumor cell proliferation, JVM-2 (Cell Titer Glo); type: cell-based; settings: Homo sapiens, 96 h; JVM-2, Lymphoma, mantle cell; 4 days; read-out: in vitro (IC50, nM), inhibition of tumor cell proliferation
Protocol: as §3

HT-144 = experiment: Tumor cell proliferation, HT-144 (crystal violet); type: cell-based; settings: Homo sapiens, 96 h; HT-144, Melanoma; 4 days; read-out: in vitro (IC50, nM), inhibition of tumor cell proliferation
Excerpt: as §2

SK-OV-3 = experiment: Tumor cell proliferation, SK-OV-3 (crystal violet); type: cell-based; settings: Homo sapiens, 96 h; SK-OV-3, Ovarian; 4 days; read-out: in vitro (IC50, nM), inhibition of tumor cell proliferation
Excerpt: as §2

BxPC3 = experiment: Tumor cell proliferation, BxPC3 (crystal violet); type: cell-based; settings: Homo sapiens, BXPC-3, 96 h; BxPC3, Pancreas; 4 days; read-out: in vitro (IC50, nM), inhibition of tumor cell proliferation
Excerpt: as §2

AsPc-1 = experiment: Tumor cell proliferation, AsPc-1 (crystal violet); type: cell-based; settings: Homo sapiens, ASPC1, 96 h; AsPc-1, Pancreas; 4 days; read-out: in vitro (IC50, nM), inhibition of tumor cell proliferation
Excerpt: as §2

MIAPaCa2 = experiment: Tumor cell proliferation, MIAPaCa2 (crystal violet); type: cell-based; settings: Homo sapiens, MIA PaCa-2, 96 h; MIAPaCa2, Pancreas; 4 days; read-out: in vitro (IC50, nM), inhibition of tumor cell proliferation
Excerpt: as §2

DLD-1 parental = experiment: Isogenic tumor cell line proliferation, DLD-1 parental; type: cell-based; settings: Homo sapiens, 168 h, Colorectal, 7 days, CTG, read-out: in vitro (IC50, nM), inhibition of isogenic tumor cell line proliferation
Protocol: (§4) The isogenic DLD-1 cell lines DLD-1 parental, DLD-1 BRCA2 (−/−) and DLD-1 ATM (−/−) (see Table 3: Test systems) were seeded in RPMI 1640 (RPMI=Roswell Park Memorial Institute) medium without phenol red+10% charcoal-stripped FCS (FCS=Fetal Calf Serum)+2 mM L-Glutamine+25 mM Sodium Bicarbonate at 2,500 cells/well in a 96-well microtiter plate. […] All measurements were done in quadruplicates.

DLD-1 BRCA2 (−/−) = experiment: Isogenic tumor cell line proliferation, DLD-1 BRCA2 (−/−); type: cell-based; settings: Homo sapiens, 168 h, BRCA2 deficiency, 7 days, CTG, read-out: in vitro (IC50, nM), inhibition of isogenic tumor cell line proliferation
Protocol: as §4

[6] = tested on: A2780 xenograft (ovarian); settings: mouse, in vivo, po, 50 mg/kg
Protocol: (§5) For this purpose, mice were implanted subcutaneously with tumor cells. […] The oral application volume was 10 ml/kg. The time interval between two applications per day was 6-7 h. […] The tumor size and the body weight were determined three times weekly. Changes in the body weight were a measure of treatment-related toxicity (>10%=critical, stop of treatment until recovery, >20%=toxic, termination). The tumor area was detected by means of an electronic caliper gauge [length (mm)×width (mm)]. In vivo anti-tumor efficacy is presented as T/C ratio (Treatment/Control) calculated with tumor areas at study end by the formula [(tumor area of treatment group at day x)−(tumor area of treatment group at day before first treatment)]/[(tumor area of control group at day x)−(tumor area of control group at day before first treatment)]. […] Statistical analysis was assessed using SigmaStat software. A one-way analysis of variance was performed and differences to the control were compared by a pair-wise comparison procedure (Dunn's method).

[7] = tested on: LOVO xenograft (colorectal cancer); settings: mouse, in vivo, po, 50 mg/kg
Protocol: as §5

PC3 xenograft (prostate) = settings: mouse, in vivo, po, 50 mg/kg
Protocol: as §5

[8] = tested on: REC-1 xenograft (mantle cell lymphoma); settings: mouse, in vivo, po, 50 mg/kg
Protocol: as §5

C[C@@H]1COCCN1c1cc(-c2ccnn2C)c2ccnc(-c3ccn[nH]3)c2n1 [Compound A, 2-[(3R)-3-methylmorpholin-4-yl]-4-(1-methyl-1H-pyrazol-5-yl)-8-(1H-pyrazol-5-yl)-1,7-naphthyridine]
IC50 [1]: 18 nM | IC50 [2]: 36 nM | IC50 [3]: 51 nM | IC50 [4]: 55 nM | IC50 [5]: 490 nM | IC50 (C4-2B): 50 nM | IC50 (HCC70): 27 nM | IC50 (HT29): 160 nM | IC50 (U-87MG): 64 nM | IC50 (M059J): 80 nM | IC50 (NCI-H2030): 160 nM | IC50 (NCI-H23): 18 nM | IC50 (A549): 29 nM | IC50 (SU-DHL-8): 9 nM | IC50 (TMD-8): 179 nM | IC50 (REC-1): 10 nM | IC50 (Jeko-1): 18 nM | IC50 (GRANTA-519): 30 nM | IC50 (JVM-2): 32 nM | IC50 (HT-144): 40 nM | IC50 (SK-OV-3): 33 nM | IC50 (BxPC3): 44 nM | IC50 (AsPc-1): 49 nM | IC50 (MIAPaCa2): 380 nM | IC50 (DLD-1 parental): 50 nM | IC50 (DLD-1 BRCA2 (−/−)): 27 nM | Max. weight loss (%) [6]: −6% | Max. weight loss (%) [7]: −8% | Max. weight loss (%) (PC3 xenograft (prostate)): −7% | Max. weight loss (%) [8]: −10%
